Measurements reported in patent publication US9227955B2, “Compound having angiogenesis inhibitory activity, method for preparing same, and pharmaceutical composition comprising same” (Boryung Pharmaceutical Co., Ltd., priority 2011, dated 2016).
Entries after “also recorded” stand apart in the source; their conditions may differ. Marks after values point to notes of the source that are not given here.

Columns and labels:
[1] = test system: HUVECs (human umbelical vein endothelial cells); assay: Transwell assay, VEGF-induced cell migration in HUVECs; type: cell-based; conditions: for No. of migration cells/field: 10 ng/ml VEGF 24 hrs, n=3
Protocol: To examine the inhibitory effect of the compounds obtained in the Examples on VEGF (Vascular endothelial growth factor)-induced cell migration in HUVECs (human umbelical vein endothelial cells), a transwell assay was performed as follows.
HUVECs, provided from ATCC (American Type Culture Collection), were incubated in EGM-2 (Endothelial growth Medium-2 Medium) including 10% FBS, penicillin (100 unit/ml) and 100 μg/ml streptomycin sulfate plus various growth factors at 37° C. in an atmosphere of 5% CO2. After the change of the medium with growth factor-free EBM-2 (Endothelial Basal Medium-2 Medium), the cells were subjected to transwell assay.
After for 24 hours, the cells were fixed for 1 min with ethanol and were stained with a dye. Cell migration was evaluated by counting cells which moved through the pores.
In addition, cells were treated with Compound No. 250 (Example 26) at various concentrations given in Table 3, and assayed for cell migration, as conducted with Compounds 103, 110, 218, 273, 275, 276, 290, 312, 428, 442, and 509. The results were compared with those obtained after non-treatment (no treat) or treatment with 10 ng/mL VEGF.
Results were expressed as average numbers (n=3) of HUVECs which moved cross the membrane. Test results are summarized in Table 3 for compounds 103, 110, 218, 273, 275, 276, 290, 312, 428, 442, and 509, and in Table 4 for compound 250.

[2] = test system: ERK (Extracellular signal-regulated kinases); assay: VEGF-induced ERK activation in HUVECs (Western blot); type: cell-based, human; conditions: HUVECs pretreated 1 hr, VEGF 10 ng/ml 10 min, FIG. 9
Protocol: (§1) An examination was made to see the effect of compounds of Chemical Formula I, prepared in the Examples above, on VEGF-induced activation of AKT (serine/threonine protein kinase B)/ERK (Extracellular signal-regulated kinases) and eNOS (endothelial nitric oxide synthase) in HUVECs, as follows (endothelial nitric oxide synthase).
(§2) After 3 min of centrifugation at 4000 rpm to collect the cells, the cell pellet was washed once with PBS (phosphate buffered saline). The cell pellet suspended in a lysis buffer (50 mM HEPES pH 7.0, 250 mM NaCl, 5 mM EDTA, 0.1% Nonidet P-40, 1 mM phenylmethylsulfonyl fluoride and 0.5 mM Na orthovanadate) containing 5 μl/mL of leupeptin and aprotinin, each and the reaction was performed at 4° C. for 20 min. After the cell debris was removed by microcentrifugation, the supernatant was swiftly cooled.
(§3) Protein quantification was carried out using a Bio-Rad protein assay reagent. […]
(§4) For immunoblotting, the membrane was incubated overnight at 4° C. in a blocking solution (5% skim milk), and reacted with a primary antibody for 4 hrs. After 4 washes with Tween 20/Tris-buffered saline (TTBS), the membrane was reacted with a 1:1000 (v/v) dilution of a horseradish peroxidase-conjugated secondary antibody at room temperature for 1 hr, washed three times with TTBS, and visualized by a chemical luminescence method (Amersham Life Science).

[3] = Cell viability MTS assay (cytotoxicity); type: cell-based; conditions: human; A-431 cells, 48 hrs incubation; read-out: IC50, MTS assay for cytotoxicity against A-431
Protocol: A-431 ([…], human, ATCC CRL-1555™) cells grown in DMEM (Dulbeco's Modified Eagle's Medium, Gibco #11885) were seeded at a density of 1×10^4 cells/well into 96-well plates and incubated at 37° C. for 18 hrs under the supply of 5% CO2 until the cells stably adhered to the bottom. […] After incubation for 48 hrs in the presence of the test compound, the cells were assayed for viability.
The cells in each well was added with 21 μl of a mixture of 20:1 (v/v) of an MTS solution [(3-(4,5-dimethylthiazol-2-yl)-5-(3-carboxymethoxyphenyl)-2-(4-sulfophenyl)-2H-tetrazolium, Promega, Cat#65421; 2 mg/ml] and a PMS solution [Phenazine methosulfate, Sigma #P9625; 1 mg/ml], and incubated for 2 hrs, followed by measuring absorbance at 490 nm on a microplate reader (Molecular device, spectraMax M2). Relative to the control (media), viability by drug concentration was determined from the measurements of formazan, and the results are given in Table 2, below.

[4] = test system: eNOS (endothelial nitric oxide synthase); assay: VEGF-induced eNOS activation in HUVECs (Western blot); type: cell-based, human; conditions: HUVECs pretreated 1 hr, VEGF 10 ng/ml 1 hr, FIG. 9
Protocol: as §1, §2, §3, §4

HUVECs [5] = assay: VEGF-induced tube formation of HUVECs (capillary structure formation assay); type: cell-based, human; conditions: for Number of tubes/field: 4 hrs
Protocol: After HUVECs were seeded at a density of 3×10^5 cells/well into Matrigel-coated 48-well plates, HUVECs were with 10 ng/ml VEGF for 4 hrs. The HUVECs where tubes were formed were monitored and photographed under a microscope equipped with a camera to count cells.
HUVECs were also treated with Compound 250 (Example 26) at various concentrations given in Table 10, The HUVECs where tubes were formed were monitored and photographed under a microscope equipped with a camera, like Compound 103.

[6] = test system: Aortic rings excised from C57BL/6 mice; assay: Ex vivo microvessel sprouting assay, mouse aortic rings; conditions: mouse aortic rings, 0.1, 0.5, 1 μM, 10 ng/ml VEGF 7 days, FIG. 5
Excerpt: Sprouts from margins of the aortic rings were photographed under a microscope equipped with a camera.

HUVECs [7] = assay: BrdU incorporation assay, VEGF-induced cell proliferation in HUVECs; type: cell-based, human
Protocol: A BrdU incorporation assay was carried out to examine whether the proliferation of HUVECs through VEGF-induced DNA synthesis is suppressed by BRN-103. HUVECs grown as in Experimental Example 2 were seeded at a density of 1×10^4 cells/well into 96-well plates. […] Thereafter, DNA synthesis in the cells was fluorescently measured using a BrdU incorporation assay kit (Roche).
Likewise, the cells were treated with various concentrations of Compound 250 (Example 26) given in Table 8, and then with VEGF, as the same manner of that of Compound 103. Intracellular DNA was also quantified, as the same manner of that of Compound 103. For comparison, the cells were not treated (control), or were treated with 10 ng/mL VEGF, alone.

[8] = test system: AKT (serine/threonine protein kinase B); assay: VEGF-induced AKT activation in HUVECs (Western blot); type: cell-based, human; conditions: HUVECs pretreated 1 hr, VEGF 10 ng/ml 30 min, FIG. 9
Protocol: as §1, §2, §3, §4

HUVECs [9] = assay: Wound healing assay, VEGF-induced migration of HUVECs; type: cell-based, human; conditions: for Wound closure: 24 hrs
Protocol: Using a sterile, disposable cell scraper (BD Falcon, Bedford, USA), a monolayer of HUVECs was scraped, and the cells were gently washed with PBS. […] After 24 hours, the cell migration were monitored through the scraped monolayer of the cell and photographed under a microscope equipped with a camera (Canon Powershot640).
Also, Compound 250 (Example 26) was applied at various concentrations shown in Table 6 in the same manner as Compound 103, followed by monitoring and photographing the migration of the cells under the microscope. For comparison, the cells were not treated (control) or were treated with 10 ng/mL VEGF, alone.

## O=C(Nc1cccc(Cl)c1)c1cccnc1NC1CCN(Cc2ccccc2)CC1 [Compound 103, 2-(1-Benzylpiperidin-4-ylamino)-N-(3-chlorophenyl)nicotinamide]
[1]; 0.1 μM
  No. of migration cells/field: 16*** cells/field
[1]; 0.5 μM
  No. of migration cells/field: 12*** cells/field
[1]; 1 μM
  No. of migration cells/field: 8*** cells/field
[1]; transwell assay, text on Tables 3 and 4
  suppression of VEGF-induced migration of HUVECs, in words: more suppressive than the anticancer agent sunitinib
[2]
  expression of p-ERK: did not suppress the expression of p-ERK
[3]
  IC50 at 48 h: 40.6 µM
[4]
  p-eNOS level: downregualted
HUVECs [5]; Tables 9 and 10
  suppression of VEGF-induced tube formation, in words: more efficient in the inhibition of tube formation than sunitinib; also recorded: VEGF-induced tube formation was also suppressed
HUVECs [5]; VEGF + 0.1 μM
  Number of tubes/field: 90** tubes/Field
HUVECs [5]; VEGF + 0.5 μM
  Number of tubes/field: 80*** tubes/Field
HUVECs [5]; VEGF + 1 μM
  Number of tubes/field: 60*** tubes/Field
[6]
  VEGF-induced aortic sprouting: inhibited VEGF-induced aortic sprouting
HUVECs [7]; 1 μM, without VEGF
  BrdU incorporation: 0.7 OD 450 nm
HUVECs [7]; BrdU assay, text on Tables 7 and 8
  inhibition of VEGF-induced proliferation in HUVECs, in words: inhibited VEGF-induced proliferation in HUVECs in a dose-dependent manner
HUVECs [7]; VEGF + 0.1 μM, 24 hrs
  BrdU incorporation: 1.0*** OD 450 nm
HUVECs [7]; VEGF + 0.5 μM, 24 hrs
  BrdU incorporation: 0.8*** OD 450 nm
HUVECs [7]; VEGF + 1 μM, 24 hrs
  BrdU incorporation: 0.7*** OD 450 nm
[8]
  expression of p-AKT: decreased the expression of p-AKT
HUVECs [9]; VEGF + 0.1 μM
  Wound closure: 200 µm
HUVECs [9]; VEGF + 0.5 μM
  Wound closure: 180 µm
HUVECs [9]; VEGF + 1 μM
  Wound closure: 155 µm
HUVECs [9]; wound healing assay, text on Tables 5 and 6
  suppression of VEGF-induced migration of HUVECs, in words: higher efficiency than sunitinib
